Read-outs that look alike come from different tables or passages of the source.
Columns and labels:
DENV-2 = conditions: analogous DENV-2 antiviral assay, reported activity; cited from earlier work
in vitro [1] = conditions: African green monkey
DENV-2 16681 strain = assay: DENV-2 antiviral assay (eGFP-labeled virus in Vero cells); assay type: cell-based, Dengue virus; conditions: DENV-2 16681 eGFP, MOI 0.5, 3 days
Description: The antiviral activity of all the compounds of the invention was tested the against DENV-2 16681 strain which was labeled with enhanced green fluorescent protein (eGPF). The culture medium consists of minimal essential medium supplemented with 2% of heat-inactivated fetal calf serum, 0.04% gentamycin (50 mg/mL) and 2 mM of L-glutamine. Vero cells, obtained from ECACC, were suspended in culture medium and 25 μL was added to 384-well plates (2500 cells/well), which already contain the antiviral compounds. Typically, these plates contain a 5-fold serial dilution of 9 dilution steps of the test compound at 200 times the final concentration in 100% DMSO (200 nL). […] Finally, each plate contains wells which are assigned as virus controls (containing cells and virus in the absence of compound), cell controls (containing cells in the absence of virus and compound) and medium controls (containing medium in the absence of cells, virus and compounds). To the wells assigned as medium control, 25 μL of culture medium was added instead of Vero cells. Once the cells were added to the plates, the plates were incubated for 30 minutes at room temperature to allow the cells to distribute evenly within the wells. Next, the plates were incubated in a fully humidified incubator (37° C., 5% CO2) until the next day. Then, DENV-2 strain 16681, labeled with eGFP, was added at a multiplicity of infection (MOI) of 0.5. Therefore, 15 μL of virus suspension was added to all the wells containing test compound and to the wells assigned as virus control. In parallel, 15 μL of culture medium was added to the medium and cell controls. Next, the plates were incubated for 3 days in a fully humidified incubator (37° C., 5% CO2). At the day of the read out, the eGFP fluorescence was measured using an automated fluorescence microscope at 488 nm (blue laser). Using an in-house LIMS system, inhibition dose response curves for each compound were calculated and the half maximal effective concentration (EC50) was determined. Therefore, the percent inhibition (I) for every test concentration is calculated using the following formula: I=100*(ST-SCC)/(SVC-SCC), ST, SCC and SVC are the amount of eGFP signal in the test compound, cell control and virus control wells, respectively. The EC50 represents the concentration of a compound at which the virus replication is inhibited with 50%, as measured by a 50% reduction of the eGFP fluorescent intensity compared to the virus control. The EC50 is calculated using linear interpolation (Table 1).

Vero cells = conditions: African green monkey
DENV-3 strain H87 = assay: Tetravalent RT-qPCR assay, serotype 3; assay type: cell-based, Dengue virus; conditions: Dengue virus, DENV3, Vero, 72 h, RT-qPCR serotype 3 H87, Protocol A, Vero cells, day 3
Description: (§1) Tetravalent reverse transcriptase quantitative-PCR (RT-qPCR) assay The antiviral activity of the compounds of the invention was tested against DENV-1 strain TC974#666 (NCPV), DENV-2 strain 16681, DENV-3 strain H87 (NCPV) and DENV-4 strain H241 (NCPV) in a RT-qPCR assay. Therefore, Vero cells were infected with either DENV-1, or -2, or -3, or -4 in the presence or absence of test compounds. At day 3 post-infection, the cells were lysed and cell lysates were used to prepare cDNA of both a viral target (the 3′UTR of DENV; Table 2) and a cellular reference gene (β-actin, Table 2). Subsequently, a duplex real time PCR was performed on a Lightcycler480 instrument. The generated Cp value is inversely proportional to the amount of RNA expression of these targets. Inhibition of DENV replication by a test compound results in a shift of Cp's for the 3′UTR gene. On the other hand, if a test compound is toxic to the cells, a similar effect on β-actin expression will be observed. The comparative ΔΔCp method is used to calculate EC50, which is based on the relative gene expression of the target gene (3′UTR) normalized with the cellular housekeeping gene (β-actin). In addition, CC50 values are determined based on the Cp values acquired for the housekeeping gene β-actin.
(§2) The culture medium consisted of minimal essential medium supplemented with 2% of heat-inactivated fetal calf serum, 0.04% gentamycin (50mg/mL) and 2 mM of L-glutamine. Vero cells, obtained from ECACC, were suspended in culture medium and 75 μL/well was added in 96-well plates (10000 cells/well), which already contain the antiviral compounds. […] In addition, each plate contains wells which are assigned as virus controls (containing cells and virus in the absence of compound) and cell controls (containing cells in the absence of virus and compound). Once the cells were added in the plates, the plates were incubated in a fully humidified incubator (37° C., 5% CO2) until the next day. Dengue viruses serotype-1, 2, 3 and 4 were diluted in order to obtain a Cp of ˜22-24 in the assay. Therefore, 25 μL of virus suspension was added to all the wells containing test compound and to the wells assigned as virus control. In parallel, 25 μL of culture medium was added to the cell controls. Next, the plates were incubated for 3 days in a fully humidified incubator (37° C., 5% CO2). After 3 days, the supernatant was removed from the wells and the cells were washed twice with ice-cold PBS (˜100 μL). The cell pellets within the 96-well plates were stored at −80° C. for at least 1 day. Next, RNA was extracted using the Cells-to-CT™ lysis kit, according to the manufacturer's guideline (Life Technologies). The cell lysates can be stored at −80° C. or immediately used in the reverse transcription step.
(§3) In preparation of the reverse transcription step, mix A (table 3A) was prepared and 7.57 μL/well was dispensed in a 96-well plate. After addition of 5 μL of the cell lysates, a five minute denaturation step at 75° C. was performed (table 3B). Afterwards, 7.43 μL of mix B was added (table 3C) and the reverse transcription step was initiated (table 3D) to generate cDNA.
(§4) Finally, a RT-qPCR mix was prepared, mix C (table 4A), and 22.02 μL/well was dispensed in 96-well LightCycler qPCR plates to which 3μL of cDNA was added and the qPCR was performed according to the conditions in table 4B on a LightCycler 480.
(§5) Using the LightCycler software and an in-house LIMS system, dose response curves for each compound were calculated and the half maximal effective concentration (EC50) and the half maximal cytotoxic concentration (CC50) were determined (Tables 5-8).

DENV-4 strain H241 = assay: Tetravalent RT-qPCR assay, serotype 4; assay type: cell-based, Dengue virus; conditions: Dengue virus, DENV4, Vero, 72 h, RT-qPCR serotype 4 H241, Protocol A, Vero cells, day 3
Description: as §1, §2, §3, §4, §5

DENV-1 strain TC974#666 = assay: Tetravalent RT-qPCR assay, serotype 1; assay type: cell-based, Dengue virus; conditions: Dengue virus, DENV1, Vero, 72 h, RT-qPCR serotype 1 TC974#666, Protocol A, Vero cells, day 3
Description: as §1, §2, §3, §4, §5

DENV-2 strain 16681 = assay: Tetravalent RT-qPCR assay, serotype 2; assay type: cell-based, Dengue virus; conditions: Dengue virus, DENV2, Vero, 72 h, RT-qPCR serotype 2 16681, Protocol A, Vero cells, day 3
Description: as §1, §2, §3, §4, §5

in vitro [2] = assay type: cell-based; conditions: African green monkey
Description: as §1, §2, §5

[3] = Dengue virus, DENV2, Vero, 72 h

Row | Compound | EC50 (DENV-2) | CC50 (in vitro [1]) | EC50 (DENV-2 16681 strain; [3]) | melting point | CC50 (Vero cells) | EC50 (DENV-3 strain H87) | EC50 (DENV-4 strain H241; read-out: EC50) | EC50 (DENV-1 strain TC974#666) | EC50 (DENV-2 strain 16681) | EC50 (DENV-2 16681 strain) | CC50 at 3 days (in vitro [2]) | EC50 (DENV-4 strain H241)
1 | COc1cccc(NC(C(=O)N2CCc3ccccc32)c2ccccc2)c1 (stereo not drawn) [(56) of WO-2013/045516] | 450 nM |  |  |  |  |  |  |  |  |  |  | 
2 | COc1cc(NC(C(=O)N2CCc3cc(OC)c(C(F)(F)F)cc32)c2ccc(Cl)cc2OC)cc(OCCO)c1 (racemic) [Compound 11, 2-(4-chloro-2-methoxyphenyl)-2-((3-(2-hydroxyethoxy)-5-methoxyphenyl)amino)-1-(5-methoxy-6-(trifluoromethyl)indolin-1-yl)ethanone] |  | 22000 nM | 2.3 nM | 175 °C |  |  |  |  |  |  |  | 
3 | COc1cc(NC(C(=O)N2CCc3cc(OC)c(C(F)(F)F)cc32)c2ccc(Cl)cc2)cc(OCCO)c1 (single isomer, unassigned) [Compound 7B, 2-(4-chlorophenyl)-2-((3-(2-hydroxyethoxy)-5-methoxyphenyl)amino)-1-(5-methoxy-6-(trifluoromethyl)indolin-1-yl)ethanone] |  |  |  |  | 12000 nM | 30 nM | 120 nM | 5.1 nM | 0.96 nM | 1 nM | 4100 nM | 
4 | COc1cc(NC(C(=O)N2CCc3ccc(OC(F)(F)F)cc32)c2ccc(Cl)cc2OC)cc(OCCO)c1 (single isomer, unassigned) [Compound 5A, 2-(4-chloro-2-methoxyphenyl)-2-((3-(2-hydroxyethoxy)-5-methoxyphenyl)amino)-1-(6-(trifluoromethoxy)indolin-1-yl)ethanone] |  | 9800 nM |  |  |  | 20 nM | 210 nM | 2.6 nM | 3 nM | 1.4 nM | 4700 nM | 
5 | COc1cc(NC(C(=O)N2CCc3ccc(C(F)(F)F)cc32)c2ccc(Cl)cc2OC)cc(OCCO)c1 (racemic) [Compound 1, 2-(4-chloro-2-methoxyphenyl)-2-((3-(2-hydroxyethoxy)-5-methoxyphenyl)amino)-1-(6-(trifluoromethyl)indolin-1-yl)ethanone] |  | 13000 nM | 5.6 nM | 194 °C |  |  |  |  |  |  |  | 
6 | COc1cc(NC(C(=O)N2CCc3cc(OC)c(OC(F)(F)F)cc32)c2ccc(Cl)cc2)cc(OCCO)c1 (racemic) [Compound 13, 2-(4-chlorophenyl)-2-((3-(2-hydroxyethoxy)-5-methoxyphenyl)amino)-1-(5-methoxy-6-(trifluoromethoxy)indolin-1-yl)ethanone] |  | 13000 nM | 4.9 nM | 165 °C |  |  |  |  |  |  |  | 
7 | COc1cc(NC(C(=O)N2CCc3cc(OC)c(OC(F)(F)F)cc32)c2ccc(Cl)cc2)cc(OCCO)c1 (single isomer, unassigned) [Compound 13A, 2-(4-chlorophenyl)-2-((3-(2-hydroxyethoxy)-5-methoxyphenyl)amino)-1-(5-methoxy-6-(trifluoromethoxy)indolin-1-yl)ethanone] |  |  |  |  | 12000 nM | 43 nM |  | 6.3 nM | 1.5 nM | 3.5 nM | > 2500 nM | 270 nM
8 | COc1cc(NC(C(=O)N2CCc3ccc(OC(F)(F)F)cc32)c2ccc(Cl)cc2)cc(OCCO)c1 (racemic) [Compound 3, 2-(4-chlorophenyl)-2-((3-(2-hydroxyethoxy)-5-methoxyphenyl)amino)-1-(6-(trifluoromethoxy)indolin-1-yl)ethanone] |  | 9500 nM | 5.5 nM | 162 °C |  |  |  |  |  |  |  | 
9 | COc1cc(NC(C(=O)N2CCc3ccc(OC(F)(F)F)cc32)c2ccc(Cl)cc2F)cc(OCCO)c1 (single isomer, unassigned) [Compound 6B, 2-(4-chloro-2-fluorophenyl)-2-((3-(2-hydroxyethoxy)-5-methoxyphenyl)amino)-1-(6-(trifluoromethoxy)indolin-1-yl)ethanone] |  |  |  |  | 12000 nM | 28 nM | 140 nM | 3.1 nM | 2 nM | 2.5 nM | 4800 nM | 
10 | COc1cc(NC(C(=O)N2CCc3ccc(C(F)(F)F)cc32)c2ccc(Cl)cc2)cc(OCCO)c1 (racemic) [Compound 4, 2-(4-chlorophenyl)-2-((3-(2-hydroxyethoxy)-5-methoxyphenyl)amino)-1-(6-(trifluoromethyl)indolin-1-yl)ethanone] |  | 9700 nM | 6.7 nM | 160 °C |  |  |  |  |  |  |  | 
11 | COc1cc(NC(C(=O)N2CCc3ccc(C(F)(F)F)cc32)c2ccc(Cl)cc2F)cc(OCCO)c1 (single isomer, unassigned) [Compound 2B, 2-(4-chloro-2-fluorophenyl)-2-((3-(2-hydroxyethoxy)-5-methoxyphenyl)amino)-1-(6-(trifluoromethyl)indolin-1-yl)ethanone] |  |  |  |  | 13000 nM | 29 nM | 170 nM | 2.4 nM | 3.2 nM | 2.5 nM | 4800 nM | 
12 | COc1cc(NC(C(=O)N2CCc3cc(F)c(C(F)(F)F)cc32)c2ccc(Cl)cc2)cc(OCCO)c1 (racemic) [Compound 12, 2-(4-chlorophenyl)-1-(5-fluoro-6-(trifluoromethyl)indolin-1-yl)-2-((3-(2-hydroxyethoxy)-5-methoxyphenyl)amino)ethanone] |  | 11000 nM | 11 nM | 130 °C |  |  |  |  |  |  |  | 

Reference: US20200339511A1, “Substituted indoline derivatives as dengue viral replication inhibitors” (priority 2016, published 2020)
